{"source": "paper PMC9266445", "about": "“Probing the Conformational States of Thimet Oligopeptidase in Solution” (International Journal of Molecular Sciences, 2022)", "key": {"TOP^-TrpW390/L215pNF [1]": {"target": "T1, TOP^-TrpW390/L215pNF (Rattus norvegicus, UniProt P24155, L215F/W124F/W335F/W511F/W513F/W614F)", "T1 construct": "made in house; host or cells: Escherichia coli BL21 (DE3), pET26b + pACYC184 (orthogonal tRNA/synthetase pair for pNF)", "T1 sequence (P24155 whole entry W124F/L215F/W335F/W511F/W513F/W614F)": "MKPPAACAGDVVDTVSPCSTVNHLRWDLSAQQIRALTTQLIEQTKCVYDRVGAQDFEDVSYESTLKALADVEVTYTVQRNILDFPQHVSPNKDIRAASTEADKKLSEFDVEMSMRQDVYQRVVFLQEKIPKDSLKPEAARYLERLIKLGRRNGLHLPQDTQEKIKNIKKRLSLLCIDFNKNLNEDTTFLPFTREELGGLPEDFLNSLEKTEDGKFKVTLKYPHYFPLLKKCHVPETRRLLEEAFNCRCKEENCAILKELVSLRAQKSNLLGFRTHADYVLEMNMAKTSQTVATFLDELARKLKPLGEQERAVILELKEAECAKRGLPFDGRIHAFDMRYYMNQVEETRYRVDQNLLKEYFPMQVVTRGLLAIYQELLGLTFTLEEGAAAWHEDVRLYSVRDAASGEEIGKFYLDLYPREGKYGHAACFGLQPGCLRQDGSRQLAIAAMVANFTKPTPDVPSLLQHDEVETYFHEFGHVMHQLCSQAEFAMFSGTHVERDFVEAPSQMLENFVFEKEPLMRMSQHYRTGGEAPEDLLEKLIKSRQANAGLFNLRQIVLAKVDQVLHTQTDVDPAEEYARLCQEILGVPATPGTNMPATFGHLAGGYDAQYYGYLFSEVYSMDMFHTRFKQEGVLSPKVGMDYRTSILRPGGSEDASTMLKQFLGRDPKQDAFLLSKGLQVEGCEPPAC", "experiment": "Protein fluorescence (Trp-pNF FRET) assay in presence of JA-2, TOP^-TrpW390/L215pNF"}, "TOP^-TrpW390/Y224pNF [2]": {"target": "T2, TOP^-TrpW390/Y224pNF (Rattus norvegicus, UniProt P24155, W124F/W335F/W511F/W513F/W614F/Y224F)", "T2 construct": "made in house; host or cells: Escherichia coli BL21 (DE3), pET26b + pACYC184 (orthogonal tRNA/synthetase pair for pNF)", "T2 sequence (P24155 whole entry W124F/Y224F/W335F/W511F/W513F/W614F)": "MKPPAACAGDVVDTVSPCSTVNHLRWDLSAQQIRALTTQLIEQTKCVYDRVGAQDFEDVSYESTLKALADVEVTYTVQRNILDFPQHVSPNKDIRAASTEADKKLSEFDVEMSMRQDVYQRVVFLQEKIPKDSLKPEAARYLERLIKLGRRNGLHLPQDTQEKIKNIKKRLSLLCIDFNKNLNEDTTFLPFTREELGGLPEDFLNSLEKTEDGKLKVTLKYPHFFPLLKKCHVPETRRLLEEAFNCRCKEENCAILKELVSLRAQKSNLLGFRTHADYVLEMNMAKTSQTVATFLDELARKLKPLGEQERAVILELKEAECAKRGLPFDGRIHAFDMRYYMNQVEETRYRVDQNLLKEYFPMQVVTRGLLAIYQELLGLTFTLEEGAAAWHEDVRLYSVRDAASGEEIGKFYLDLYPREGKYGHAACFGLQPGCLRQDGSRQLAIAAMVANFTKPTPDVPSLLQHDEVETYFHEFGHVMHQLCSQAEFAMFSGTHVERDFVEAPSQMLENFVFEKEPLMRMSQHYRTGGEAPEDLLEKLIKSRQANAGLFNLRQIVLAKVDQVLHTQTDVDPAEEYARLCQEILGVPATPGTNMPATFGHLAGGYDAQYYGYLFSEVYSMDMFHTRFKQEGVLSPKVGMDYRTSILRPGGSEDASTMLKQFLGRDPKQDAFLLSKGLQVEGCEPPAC", "experiment": "Inhibition constant of JA-2, continuous assay with QFS, TOP^-TrpW390/Y224pNF", "assay_type": "biochemical", "details": "substrate QFS, 37 °C, 50 mM Tris-HCl pH 7.4, 100 mM NaCl, 0.5 mM DTT", "method": "(§1) WT TOP and mutant activities were monitored spectrofluorometrically in a Shimadzu RF-5301PC spectrofluorometer using the FRET peptide QFS (Mca-Pro-Leu-Gly-Pro-D-Lys (Dnp)-OH) as substrate, with excitation and emission wavelengths of 320 and 420 nm, respectively. TOP and its mutants were pre-activated by incubation with 0.5 mM DTT for 5 min at 37 °C. The concentration of the peptide solutions was determined by measuring the absorption of the 2,4-dinitrophenyl group at 365 nm (ε = 17,300 M^−1cm^−1). The kinetic parameters of peptide hydrolysis were determined at 37 °C in 50 mM Tris-HCl buffer, pH 7.4, containing 100 mM NaCl. […] The reaction was monitored continuously via the fluorescence of the released product. The rate of increase in fluorescence was converted into moles of substrate hydrolyzed per second based on the fluorescence curves of standard peptide solutions before and after total enzymatic hydrolysis. […] An empirical equation was used to correct for the inner-filter effect, and the kinetic parameters were calculated according to Wilkinson and by using Eadie–Hofstee plots. […]\n(§2) Inhibition constants were determined using the TOP inhibitor JA-2 (N-[1-(R,S)-carboxy-3-phenylpropyl]Ala-Aib-Tyr-p-aminobenzoate). The constants were determined in a continuous assay using the FRET peptide QFS as substrate. […]"}, "TOP^-TrpW390/Y224pNF [3]": {"target": "T2, TOP^-TrpW390/Y224pNF", "experiment": "Protein fluorescence (Trp-pNF FRET) assay in presence of JA-2, TOP^-TrpW390/Y224pNF"}, "TOP^-TrpW390/F178pNF [4]": {"target": "T3, TOP^-TrpW390/F178pNF (Rattus norvegicus, UniProt P24155, W124F/W335F/W511F/W513F/W614F)", "T3 construct": "made in house; host or cells: Escherichia coli BL21 (DE3), pET26b + pACYC184 (orthogonal tRNA/synthetase pair for pNF)", "T3 sequence (P24155 whole entry W124F/W335F/W511F/W513F/W614F)": "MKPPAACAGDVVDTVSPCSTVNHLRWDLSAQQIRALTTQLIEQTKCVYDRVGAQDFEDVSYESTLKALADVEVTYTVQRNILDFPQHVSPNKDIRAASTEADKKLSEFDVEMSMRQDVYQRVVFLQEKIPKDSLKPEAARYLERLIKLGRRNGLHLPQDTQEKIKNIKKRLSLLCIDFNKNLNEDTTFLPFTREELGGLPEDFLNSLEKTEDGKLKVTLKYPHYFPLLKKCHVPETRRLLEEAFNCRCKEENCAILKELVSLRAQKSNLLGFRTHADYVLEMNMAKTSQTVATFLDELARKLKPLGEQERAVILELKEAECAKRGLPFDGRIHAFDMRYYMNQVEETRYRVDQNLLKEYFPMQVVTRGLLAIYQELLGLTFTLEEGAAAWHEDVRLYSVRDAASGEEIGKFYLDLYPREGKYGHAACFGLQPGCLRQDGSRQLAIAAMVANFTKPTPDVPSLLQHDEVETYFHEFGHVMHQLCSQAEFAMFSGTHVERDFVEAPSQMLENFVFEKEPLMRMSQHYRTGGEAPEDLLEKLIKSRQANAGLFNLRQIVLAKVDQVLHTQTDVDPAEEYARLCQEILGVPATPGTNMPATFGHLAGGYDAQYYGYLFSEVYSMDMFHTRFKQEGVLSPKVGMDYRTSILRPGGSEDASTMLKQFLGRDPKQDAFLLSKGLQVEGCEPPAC", "experiment": "Protein fluorescence (Trp-pNF FRET) assay in presence of JA-2, TOP^-TrpW390/F178pNF"}, "TOP^-TrpW390": {"target": "T4, TOP^-TrpW390 (Rattus norvegicus, UniProt P24155, W124F/W335F/W511F/W513F/W614F)", "T4 construct": "made in house; host or cells: Escherichia coli BL21 (DE3), pET26b", "T4 sequence (P24155 whole entry W124F/W335F/W511F/W513F/W614F)": "as above", "experiment": "Inhibition constant of JA-2, continuous assay with QFS, TOP^-TrpW390", "assay_type": "biochemical", "details": "substrate QFS, 37 °C, 50 mM Tris-HCl pH 7.4, 100 mM NaCl, 0.5 mM DTT", "method": "as §1, §2"}, "WT TOP": {"target": "T5, WT TOP (Rattus norvegicus, UniProt P24155)", "T5 construct": "made in house; host or cells: Escherichia coli BL21 (DE3), pET26b", "experiment": "Inhibition constant of JA-2, continuous assay with QFS, WT TOP", "assay_type": "biochemical", "details": "substrate QFS, 37 °C, 50 mM Tris-HCl pH 7.4, 100 mM NaCl, 0.5 mM DTT", "method": "as §1, §2"}, "TOP^-TrpW390/L215pNF [5]": {"target": "T1, TOP^-TrpW390/L215pNF", "experiment": "Inhibition constant of JA-2, continuous assay with QFS, TOP^-TrpW390/L215pNF", "assay_type": "biochemical", "details": "substrate QFS, 37 °C, 50 mM Tris-HCl pH 7.4, 100 mM NaCl, 0.5 mM DTT", "method": "as §1, §2"}, "TOP^-TrpW390/F178pNF [6]": {"target": "T3, TOP^-TrpW390/F178pNF", "experiment": "Inhibition constant of JA-2, continuous assay with QFS, TOP^-TrpW390/F178pNF", "assay_type": "biochemical", "details": "substrate QFS, 37 °C, 50 mM Tris-HCl pH 7.4, 100 mM NaCl, 0.5 mM DTT", "method": "as §1, §2"}, "TOP^-TrpW390/L182pNF [7]": {"target": "T6, TOP^-TrpW390/L182pNF (Rattus norvegicus, UniProt P24155, L182F/W124F/W335F/W511F/W513F/W614F)", "T6 construct": "made in house; host or cells: Escherichia coli BL21 (DE3), pET26b + pACYC184 (orthogonal tRNA/synthetase pair for pNF)", "T6 sequence (P24155 whole entry W124F/L182F/W335F/W511F/W513F/W614F)": "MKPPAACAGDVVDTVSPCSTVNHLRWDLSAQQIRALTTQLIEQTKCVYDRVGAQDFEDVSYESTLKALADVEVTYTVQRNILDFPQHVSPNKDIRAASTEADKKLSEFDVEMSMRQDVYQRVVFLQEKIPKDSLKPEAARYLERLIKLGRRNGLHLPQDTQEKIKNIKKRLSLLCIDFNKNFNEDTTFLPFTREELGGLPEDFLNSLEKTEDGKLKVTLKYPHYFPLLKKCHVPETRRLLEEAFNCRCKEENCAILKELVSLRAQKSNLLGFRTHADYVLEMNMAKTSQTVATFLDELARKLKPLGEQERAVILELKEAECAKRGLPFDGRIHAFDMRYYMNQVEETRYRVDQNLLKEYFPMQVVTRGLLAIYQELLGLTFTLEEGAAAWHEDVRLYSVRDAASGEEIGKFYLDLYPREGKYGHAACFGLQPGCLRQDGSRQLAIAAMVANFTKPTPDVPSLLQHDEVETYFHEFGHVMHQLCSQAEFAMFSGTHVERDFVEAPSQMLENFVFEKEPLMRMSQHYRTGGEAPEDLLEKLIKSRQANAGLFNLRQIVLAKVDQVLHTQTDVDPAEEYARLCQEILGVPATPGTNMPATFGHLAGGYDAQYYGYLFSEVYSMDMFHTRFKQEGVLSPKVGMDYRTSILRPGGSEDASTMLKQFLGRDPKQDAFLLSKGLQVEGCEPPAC", "experiment": "Protein fluorescence (Trp-pNF FRET) assay in presence of JA-2, TOP^-TrpW390/L182pNF"}, "TOP^-TrpW390/L182pNF [8]": {"target": "T6, TOP^-TrpW390/L182pNF", "experiment": "Inhibition constant of JA-2, continuous assay with QFS, TOP^-TrpW390/L182pNF", "assay_type": "biochemical", "details": "substrate QFS, 37 °C, 50 mM Tris-HCl pH 7.4, 100 mM NaCl, 0.5 mM DTT", "method": "as §1, §2"}, "[9]": {"details": "13.4 µM JA-2, 0.5 µM TOP protein, 37 °C, 50 mM Tris-HCl pH 7.4, 100 mM NaCl, 0.5 mM DTT"}, "[10]": {"details": "13.4 µM JA-2, calculated using Equation (1), R0 = 15.8 Å"}}}
{"smiles": "C[C@H](NC(CCc1ccccc1)C(=O)O)C(=O)NC(C)(C)C(=O)N[C@@H](Cc1ccc(O)cc1)C(=O)Nc1ccc(C(=O)O)cc1", "note": "(stereo partly drawn) [JA-2, N-[1-(R,S)-carboxy-3-phenylpropyl]Ala-Aib-Tyr-p-aminobenzoate]", "values": [{"measurement": "FRET Efficiency, +JA-2", "setting": "TOP^-TrpW390/L215pNF [1]; [9]", "value": "0.10 ± 0.005"}, {"measurement": "D-A Distance, +JA-2", "setting": "TOP^-TrpW390/L215pNF [1]; [10]", "value": 23, "unit": "Å"}, {"measurement": "Ki", "setting": "TOP^-TrpW390/Y224pNF [2]", "value": "1160 ± 60", "unit": "nM"}, {"measurement": "FRET Efficiency, +JA-2", "setting": "TOP^-TrpW390/Y224pNF [3]; [9]", "value": "0.30 ± 0.02"}, {"measurement": "D-A Distance, +JA-2", "setting": "TOP^-TrpW390/Y224pNF [3]; [10]", "value": 18, "unit": "Å"}, {"measurement": "FRET Efficiency, +JA-2", "setting": "TOP^-TrpW390/F178pNF [4]; [9]", "value": "0.150 ± 0.009"}, {"measurement": "D-A Distance, +JA-2", "setting": "TOP^-TrpW390/F178pNF [4]; [10]", "value": 21, "unit": "Å"}, {"measurement": "Ki", "setting": "TOP^-TrpW390", "value": "750 ± 40", "unit": "nM"}, {"measurement": "Ki", "setting": "WT TOP", "value": "32 ± 1", "unit": "nM"}, {"measurement": "Ki", "setting": "TOP^-TrpW390/L215pNF [5]", "value": "870 ± 50", "unit": "nM"}, {"measurement": "Ki", "setting": "TOP^-TrpW390/F178pNF [6]", "value": "1230 ± 80", "unit": "nM"}, {"measurement": "FRET Efficiency, +JA-2", "setting": "TOP^-TrpW390/L182pNF [7]; [9]", "value": "0.24 ± 0.02"}, {"measurement": "D-A Distance, +JA-2", "setting": "TOP^-TrpW390/L182pNF [7]; [10]", "value": 19, "unit": "Å"}, {"measurement": "Ki", "setting": "TOP^-TrpW390/L182pNF [8]", "value": "740 ± 60", "unit": "nM"}]}
